# Assay results taken from US9686985B2, “Fungicide N-cycloalkyl-N-bicyclicmethylene-carboxamide derivatives” (BAYER INTELLECTUAL PROPERTY GMBH, priority 2012, dated 2017).
# What was measured:
# [1] = tested on: Puccinia recondita; assay: Example R: in vivo preventive test on Puccinia recondita (brown rust on wheat); conditions: table R; 500 ppm; wheat plants; grading 12 days after contamination
# Method: Example R: In Vivo Preventive Test on Puccinia recondita (Brown Rust on Wheat) […] Wheat plants (“Scipion” variety), sown in starter cups on a 50/50 peat soil pozzolana substrate and grown at 22° C., are treated at the 1 leaf stage (10 cm height) by spraying with the active ingredient prepared as described above. Plants, used as controls, are treated with the mixture of acetone/tween/DMSO/water not containing the active material. After 24 hours, the plants are contaminated by spraying the leaves with an aqueous suspension of Puccinia recondita spores (100 000 spores per mL). The spores are collected from an infected plant and are suspended in water containing 2.5 mL/L of Tween 80 at 10%. The contaminated wheat plants are incubated for 24 hours at 20° C. and at 100% relative humidity, and then for 10 days at 20° C. and at 70-80% relative humidity. Grading (% of efficacy) is carried out 12 days after the contamination, in comparison with the control plants.
# [2] = log P by HPLC on reversed-phase column (EEC Directive 79/831 Annex V.A8); format: physicochemical; conditions: for logP: Table 1, HPLC C18, 40° C., 0.1% aqueous formic acid and acetonitrile gradient
# Method: In table 1, the log P values were determined in accordance with EEC Directive 79/831 Annex V.A8 by HPLC (High Performance Liquid Chromatography) on a reversed-phase column (C 18), using the method described below: Temperature: 40° C.; Mobile phases: 0.1% aqueous formic acid and acetonitrile; linear gradient from 10% acetonitrile to 90% acetonitrile. Calibration was carried out using unbranched alkan-2-ones (comprising 3 to 16 carbon atoms) with known log P values (determination of the log P values by the retention times using linear interpolation between two successive alkanones). lambda-max-values were determined using UV-spectra from 200 nm to 400 nm and the peak values of the chromatographic signals.
# [3] = tested on: Uromyces appendiculatus; assay: Example G: in vivo preventive test on Uromyces appendiculatus (bean rust); conditions: bean plants
# Method: Example G: In Vivo Preventive Test on Uromyces appendiculatus (Bean Rust) […] Bean plants (“Saxa” variety), sown in starter cups on a 50/50 peat soil pozzolana substrate and grown at 24° C., are treated at the 2 leaf stage (9 cm height) by spraying with the active ingredient prepared as described above. Plants, used as controls, are treated with the mixture of acetone/tween/DMSO/water not containing the active material. After 24 hours, the plants are contaminated by spraying the leaves with an aqueous suspension of Uromyces appendiculatus spores (150 000 spores per mL). The spores are collected from infected plants and are suspended in water containing 2.5 mL/L of Tween 80 at 10%. The contaminated bean plants are incubated for 24 hours at 20° C. and at 100% relative humidity, and then for 10 days at 20° C. and at 70-80% relative humidity. Grading (% of efficacy) is carried out 11 days after the contamination, in comparison with the control plants.
# [4] = tested on: Pyrenophora teres; assay: Example N: in vivo preventive test on Pyrenophora teres (barley); conditions: table N; 500 ppm; barley plants; grading 14 days after contamination
# Method: Example N: In Vivo Preventive Test on Pyrenophora teres (Barley) […] Barley plants (“Plaisant” variety), sown in starter cups on a 50/50 peat soil pozzolana substrate and grown at 22° C., are treated at the 1 leaf stage (10 cm height) by spraying with the active ingredient prepared as described above. Plants, used as controls, are treated with the mixture of acetone/tween/DMSO/water not containing the active material. After 24 hours, the plants are contaminated by spraying the leaves with an aqueous suspension of Pyrenophora teres spores (12 000 spores per mL). The spores are collected from a 12-day-old culture. The contaminated barley plants are incubated for 48 hours at 20° C. and at 100% relative humidity, and then for 12 days at 20° C. at 70-80% relative humidity. Grading (% of efficacy) is carried out 14 days after the contamination, in comparison with the control plants.
# [5] = tested on: Sphaerotheca fuliginea; assay: Example B: in vivo preventive test on Sphaerotheca fuliginea (powdery mildew on cucurbits); conditions: table B; 500 ppm; gherkin plants; grading 12 days after contamination
# Method: Example B: In Vivo Preventive Test on Sphaerotheca fuliginea (Powdery Mildew on Cucurbits) […] Gherkin plants (“Vert petit de Paris” variety), sown in starter cups on a 50/50 peat soil-pozzolana substrate and grown at 24° C., are treated at the Z11 cotyledon stage by spraying with the active ingredient prepared as described above. Plants, used as controls, are treated with the mixture of acetone/tween/DMSO/water not containing the active material. After 24 hours, the plants are contaminated by spraying the cotyledons with an aqueous suspension of Sphaerotheca fuliginea spores (100 000 spores per mL). The spores are collected from infected plants. The contaminated gherkin plants are incubated at about 20° C. and at 70-80% relative humidity. Grading (% of efficacy) is carried out 12 days after the contamination, in comparison with the control plants.
# [6] = tested on: Alternaria brassicae; assay: Example D: in vivo preventive test on Alternaria brassicae (leaf spot on radish); conditions: table D; 500 ppm; radish plants; grading 6 days after contamination
# Method: Example D: In Vivo Preventive Test on Alternaria brassicae (Leaf Spot on Radish) […] Radish plants (“Pernod Clair” variety), sown in starter cups on a 50/50 peat soil pozzolana substrate and grown at 17° C., are treated at the cotyledon stage by spraying with the active ingredient prepared as described above. Plants, used as controls, are treated with the mixture of acetone/tween/DMSO/water not containing the active material. After 24 hours, the plants are contaminated by spraying the cotyledons with an aqueous suspension of Alternaria brassicae spores (50 000 spores per mL). The spores are collected from a 15-day-old culture. The contaminated radish plants are incubated at 20° C. and at 100% relative humidity. Grading (% of efficacy) is carried out 6 days after the contamination, in comparison with the control plants.
# [7] = tested on: Septoria tritici; assay: Example L: in vivo preventive test on Septoria tritici (wheat); conditions: table L; 500 ppm; wheat plants; grading 24 days after contamination
# Method: Example L: In Vivo Preventive Test on Septoria tritici (Wheat) […] Wheat plants (“Scipion” variety), sown in starter cups on a 50/50 peat soil pozzolana substrate and grown at 22° C., are treated at the 1 leaf stage (10 cm height) by spraying with the active ingredient prepared as described above. Plants, used as controls, are treated with the mixture of acetone/tween/DMSO/water not containing the active material. After 24 hours, the plants are contaminated by spraying the leaves with an aqueous suspension of cryopreserved Septoria tritici spores (500 000 spores per mL). The contaminated wheat plants are incubated for 72 hours at 18° C. and at 100% relative humidity, and then for 21 days at 90% relative humidity. Grading (% of efficacy) is carried out 24 days after the contamination, in comparison with the control plants.
# [8] = tested on: Botrytis cinerea; assay: Example S: in vivo preventive test on Botrytis cinerea (grey mould); conditions: table S; 500 ppm; gherkin plants; grading 4 to 5 days after contamination
# Method: Example S: In Vivo Preventive Test on Botrytis cinerea (Grey Mould) […] Gherkin plants (“Vert petit de Paris” variety), sown in starter cups on a 50/50 peat soil pozzolana substrate and grown at 24° C., are treated at the Z11 cotyledon stage by spraying with the active ingredient prepared as described above. Plants, used as controls, are treated with the mixture of acetone/tween/DMSO/water not containing the active material. After 24 hours, the plants are contaminated by spraying the cotyledons with an aqueous suspension of cryopreserved Botrytis cinerea spores (50 000 spores per mL). The spores are suspended in a nutrient solution composed of 10 g/L of PDB, 50 g/L of D-Fructose, 2 g/L of NH4NO3 and 1 g/L of KH2PO4. The contaminated gherkin plants are incubated at 17° C. and at 90% relative humidity. Grading (% of efficacy) is carried out 4 to 5 days after the contamination, in comparison with the control plants.
# [9] = table G1, 500 ppm, grading 11 days after contamination
logP [2],chromatographic logP [2],Structure (SMILES),Efficacy [1],"Efficacy [3, 9]",Efficacy [4],Efficacy [5],Efficacy [6],"Efficacy ([3]; table G2, dose 100 ppm)","Efficacy ([3]; table G2, dose 500 ppm)",Efficacy [7],Efficacy [8]
3.51,,Cn1nc(C(F)F)c(C(=O)N(CC2CCc3ccccc32)C2CC2)c1Cl (stereo not shown) [I.1],88%,72%,86%,83%,,,,,
3.35,,Cn1nc(C(F)F)c(C(=O)N(CC2CCc3ccccc32)C2CC2)c1F (stereo not shown) [I.2],100%,100%,100%,100%,100%,88%,100%,100%,
3.87,,Cc1cccc2c1CCC2CN(C(=O)c1c(C(F)F)nn(C)c1Cl)C1CC1 (stereo not shown) [I.4],,,71%,,75%,,,79%,
3.94,,Cc1ccc2c(c1)CCC2CN(C(=O)c1c(C(F)F)nn(C)c1Cl)C1CC1 (stereo not shown) [I.5],75%,,86%,100%,,,,,
3.76,,Cc1ccc2c(c1)CCC2CN(C(=O)c1c(C(F)F)nn(C)c1F)C1CC1 (stereo not shown) [I.6],100%,100%,100%,100%,97%,69%,100%,97%,
3.39,,Cn1nc(C(F)F)c(C(=O)N(CC2CCc3c(F)cccc32)C2CC2)c1F (stereo not shown) [I.7],94%,100%,97%,100%,97%,98%,100%,93%,
3.94,,Cn1nc(C(F)F)c(C(=O)N(CC2CC(C)(C)c3ccccc32)C2CC2)c1F (stereo not shown) [I.9],100%,,97%,100%,100%,100%,,97%,
4.08,,Cn1nc(C(F)F)c(C(=O)N(CC2CC(C)(C)c3ccccc32)C2CC2)c1Cl (stereo not shown) [I.10],88%,99%,86%,100%,92%,,,79%,
3.83,,Cn1nc(C(F)F)c(C(=O)N(CC2CCc3cc(Cl)ccc32)C2CC2)c1F (stereo not shown) [I.12],81%,100%,100%,100%,100%,19%,100%,93%,
3.99,,Cn1nc(C(F)F)c(C(=O)N(CC2CCc3cc(Cl)ccc32)C2CC2)c1Cl (stereo not shown) [I.13],,,86%,78%,75%,,,,
4.04,,Cn1nc(C(F)F)c(C(=O)N(CC2CCc3ccc(C(F)(F)F)cc32)C2CC2)c1Cl (stereo not shown) [I.16],88%,100%,,100%,,,,98%,100%
4.39,,Cn1nc(C(F)F)c(C(=O)N(CC2CCc3c(Cl)cc(Cl)cc32)C2CC2)c1F (stereo not shown) [I.18],94%,100%,100%,100%,100%,,,93%,
4.59,,Cn1nc(C(F)F)c(C(=O)N(CC2CCc3c(Cl)cc(Cl)cc32)C2CC2)c1Cl (stereo not shown) [I.19],88%,100%,71%,,92%,,,,
,3.65,"COc1cccc2c1CCCC2CN(C(=O)c1c(C(F)F)nn(C)c1F)C1CC1 (stereo not shown) [I.26, N-cyclopropyl-3-(difluoromethyl)-5-fluoro-N-[(5-methoxy-1,2,3,4-tetrahydronaphthalen-1-yl)methyl]-1-methyl-1H-pyrazole-4-carboxamide]",,,100%,100%,100%,,,,100%
4.46,,COc1cccc2c1CCCC2CN(C(=S)c1c(C(F)F)nn(C)c1F)C1CC1 (stereo not shown) [I.27],,,71%,80%,93%,,,97%,
4.09,,Cn1nc(C(F)F)c(C(=O)N(CC2CCCc3cccc(Cl)c32)C2CC2)c1F (stereo not shown) [I.28],,88%,94%,100%,100%,,,100%,100%
3.21,,Cn1nc(C(F)F)c(C(=O)N(CC2CSCc3ccccc32)C2CC2)c1F (stereo not shown) [I.34],,,94%,90%,100%,,,93%,100%
3.44,,Cn1nc(C(F)F)c(C(=O)N(CC2CCSc3ccc(F)cc32)C2CC2)c1F (stereo not shown) [I.35],78%,100%,98%,80%,88%,,,,100%
